The values that follow come from patent US10993957B2 (NuCana plc, priority 2011, dated 2021).

Where two headings read alike, the source gives them in different places. Where only a bound is given, the exact number is not on record here.

The subject of one experiment is L1210/TK^−. Description: Cytostatic assay, thymidine kinase-deficient L1210/TK^− cells. Type of experiment: cell-based, murine. Particulars: for IC50: Table 6, read-out: IC50 L1210/TK^−; for CC50: L1210, Table 1, read-out: CC50 L1210/TK^−.
In a further experiment the test system is HeLa/TK^−. Description: Cytostatic assay, HeLa/TK^− cells. Particulars: for IC50: Table 6, read-out: IC50 HeLa/TK^−; for CC50: Table 1, read-out: CC50 HeLa/TK^−. Type of experiment: cell-based. The text has this:
(§1) The cell lines employed were L1210/0 (a leukemia cell line), FM3A/0 (a breast cancer cell line), Cem/0 (an acute lymphoblastic leukemia cell line) and HeLa (a cervical cell line).

The subject of the next experiment is Cem/TK^−. Description: Cytostatic assay, thymidine kinase-deficient CEM/TK^− cells. Type of experiment: cell-based, human. The conditions noted are these: for IC50: Table 6, read-out: IC50 Cem/TK^−; for CC50: Table 1, read-out: CC50 Cem/TK^−.
For the next experiment, the system named is L1210.Hyor. As to the kind of experiment: Cytostatic assay, Mycoplasma hyorhinis-infected L1210 cells. The text has this: Murine leukaemia L1210/0 and human T-lymphocyte CEM/0 cells were obtained from the American Type Culture Collection (ATCC) (Rockville, Md.). Human glioblastoma U87 cells were kindly provided by Dr. E. Menue (Institut Pasteur, Paris, France). […] S. Eriksson (currently at Uppsala University, Uppsala, Sweden) and Prof A. Karlsson (Karolinska Institute, Stockholm, Sweden). […] All cells were maintained in Dulbecco's modified Eagle's medium (DMEM) (Invitrogen, Carlsbad, Calif.) with 10% foetal bovine serum (FBS) (Biochrom AG, Berlin, Germany), 10 mM Hepes and 1 mM Sodium Pyruvate (Invitrogen). Cells were grown at 37° C. in a humidified incubator with a gas phase of 5% CO2.
Monolayer cells (U87 and U87.Hyor) were seeded in 48-well microtiter plates (Nunc™, Roskilde, Denmark) at 10,000 cells/well. After 24 hours, an equal volume of fresh medium containing the test compounds was added. On day 5, cells were trypsinized and counted in a Coulter counter (Analis, Suarlée, Belgium). Suspension cells (L1210/0, L1210/TK^−, L1210.Hyor, CEM/0, CEM/TK^−) were seeded in 96-well microtiter plates (Nunc™) at 60,000 cells/well in the presence of a given amount of the test compounds. The cells were allowed to proliferate for 48 h (L1210) or 72 hours (CEM) and were then counted in a Coulter counter.
Samples were also assayed for their % retention of activity in mycoplasma infected cells.
The L1210/0 cell cultures were infected with the mycoplasma species M. hyorhinis (cells designated: L1210.Hyor).

The test system of a further experiment is HeLa. Description: Cytostatic assay, HeLa cells. Type of experiment: cell-based. The conditions noted are these: for IC50: Table 6, read-out: IC50 HeLa; for CC50: Table 1, read-out: CC50 HeLa.
Text: as §1

A further experiment concerns Cem/0. Description: Cytostatic assay, CEM/0 cells. Type of experiment: cell-based, human. The conditions noted are these: for IC50: Table 6, read-out: IC50 Cem/0; for CC50: Table 1, read-out: CC50 Cem/0.
Text: as §1

Another experiment relates to L1210/0. Description: Cytostatic assay, L1210/0 cells. It is filed as cell-based, murine. Particulars: for IC50: read-out: IC50 L1210/0.
Text: as §1

Setting [1] is: read-out: IC50 L1210.Hyor, Table 7.
Where [2] appears, read: Mus musculus, L1210/0, Table 1, read-out: CC50 L1210/0.

On to `CCCCCOC(=O)C(CC(C)C)NP(=O)(OCC1OC(n2cc(F)c(=O)[nH]c2=O)CC1O)Oc1cccc2ccccc12` (stereo not drawn) [Nap Pnt Leu], for which the IC50 with L1210/TK^− came to 1200 ± 400 nM; in the experiment with HeLa/TK^− it was 7500 ± 400 nM; in the experiment with Cem/TK^−, 15000 ± 4000 nM; with L1210.Hyor (setting [1]), 35 ± 10 nM; in the experiment on HeLa it was 39 ± 14 nM; in the experiment on Cem/0, 71 ± 8 nM. Also, the IC50 was 17 ± 1 nM in the experiment on L1210/0 (Table 6) and 31 ± 2 nM with L1210/0 (Table 7). Also, in the experiment with L1210.Hyor (Table 7), the “IC50(L1210.Hyor)/IC50(L1210/0)” value is given as 1.13.
Regarding `CCCCCOC(=O)C(NP(=O)(OCC1OC(n2cc(F)c(=O)[nH]c2=O)CC1O)Oc1cccc2ccccc12)C(C)CC` (mixture of isomers) [Nap Pnt Ile], the IC50 amounted to 12000 ± 2000 nM with L1210/TK^−; 11000 ± 1000 nM in the experiment on HeLa/TK^−; 17000 ± 1000 nM with Cem/TK^−; 700 ± 74 nM in the experiment with L1210.Hyor (setting [1]); 300 ± 20 nM with HeLa; 460 ± 110 nM in the experiment with Cem/0. Besides, the figures for the IC50 with L1210/0 (Table 6) and in the experiment on L1210/0 (Table 7) were 220 ± 120 nM and 420 ± 21 nM, respectively. The “IC50(L1210.Hyor)/IC50(L1210/0)” value in the experiment on L1210.Hyor (Table 7) is 1.67.
As to `CCCCCCOC(=O)C(C)NP(=O)(OCC1OC(n2cc(F)c(=O)[nH]c2=O)CC1O)Oc1cccc2ccccc12` (stereo not drawn) [Nap Hex Ala], the IC50 in the experiment on L1210/TK^− worked out at 76 ± 15 nM; in the experiment on HeLa/TK^−, 1800 ± 100 nM; in the experiment with Cem/TK^−, 650 ± 340 nM; in the experiment on L1210.Hyor (setting [1]), 2.2 ± 0.28 nM; in the experiment with HeLa, 39 ± 18 nM; in the experiment with Cem/0 it was 80 ± 20 nM. The IC50 in the experiment on L1210/0 (Table 6) is 7.2 nM; with L1210/0 (Table 7), 3.2 ± 0.35 nM. Moreover, the “IC50(L1210.Hyor)/IC50(L1210/0)” value in the experiment with L1210.Hyor (Table 7) is recorded as 0.69.
Consider `C[C@H](NP(=O)(OC[C@H]1O[C@@H](n2cc(F)c(=O)[nH]c2=O)CC1O)Oc1cccc2ccccc12)C(=O)OC1CCCC1` (stereo partly drawn) [CPF 582, 5-Fluoro-2′-deoxyuridine-5′-O-[1-naphthyl-(cyclopentoxy-L-alaninyl)]phosphate], for which the CC50 with L1210/TK^− (Mus musculus) was found to be 130 ± 20 nM; in the experiment on HeLa/TK^− (Homo sapiens, HeLa), 2200 ± 1300 nM; in the experiment with Cem/TK^− (Homo sapiens, CEM-TK(-)) it was 920 ± 7 nM; in the experiment with L1210.Hyor (Mus musculus, L1210, read-out: CC50 L1210/Hyor) it was 42 nM; in the experiment on HeLa (Homo sapiens, HeLa) it was 71 ± 36 nM; with Cem/0 (Homo sapiens, CCRF-CEM) it was 35 ± 25 nM. The CC50 was found to be 31 ± 10 nM in the experiment on L1210/0 (setting [2]) and 35 nM in the experiment on L1210/0 (Mus musculus, L1210/0, Table 2, mycoplasma negative cells, read-out: CC50 L1210). Further, the IC50 in the experiment with L1210/TK^− (Mus musculus, L1210) was determined as 130 ± 20 nM; with HeLa/TK^− (Homo sapiens, HeLa) it was 2200 ± 1300 nM; with Cem/TK^− (Homo sapiens, CEM-TK(-)), 920 ± 7 nM; in the experiment with L1210.Hyor (Mus musculus, L1210, read-out: IC50 L1210.Hyor), 24 ± 5 nM; with HeLa (Homo sapiens, HeLa), 71 ± 36 nM; in the experiment on Cem/0 (Homo sapiens, CCRF-CEM), 350 ± 25 nM. Besides, the IC50 in the experiment on L1210/0 (Mus musculus, L1210/0, Table 6) worked out at 31 ± 10 nM; in the experiment on L1210/0 (Mus musculus, L1210/0, Table 7), 16 ± 0.7 nM. Moreover, the “% Retention” value in the experiment on L1210.Hyor (CC50 L1210 × 100 ÷ CC50 L1210/Hyor) turned out to be 83%. The “IC50(L1210.Hyor)/IC50(L1210/0)” value with L1210.Hyor (Table 7) is on record as 1.5.
With `CCOC(=O)[C@H](C)NP(=O)(O)OCC1OC(n2cc(F)c(=O)[nH]c2=O)CC1O` (stereo partly drawn) [CPF 437, reference compound], the CC50 in the experiment on L1210/TK^− (Mus musculus) was over 100000 nM; in the experiment on HeLa/TK^− (Homo sapiens, HeLa), over 100000 nM; in the experiment on Cem/TK^− (Homo sapiens, CEM-TK(-)), over 100000 nM; in the experiment on HeLa (Homo sapiens, HeLa), over 100000 nM; in the experiment on Cem/0 (Homo sapiens, CCRF-CEM) it was over 100000 nM; in the experiment on L1210/0 (setting [2]), 36000 ± 5000 nM.
For `CC(C)OC(=O)[C@H](C)NP(=O)(O)OCC1OC(n2cc(F)c(=O)[nH]c2=O)CC1O` (stereo partly drawn) [CPF 438, reference compound], the CC50 in the experiment with L1210/TK^− (Mus musculus) was determined as 51000 ± 9000 nM; in the experiment with HeLa/TK^− (Homo sapiens, HeLa), 72000 nM; in the experiment on Cem/TK^− (Homo sapiens, CEM-TK(-)), 32000 ± 2000 nM; in the experiment with HeLa (Homo sapiens, HeLa) it was 3700 ± 500 nM; in the experiment on Cem/0 (Homo sapiens, CCRF-CEM), 2100 ± 600 nM; with L1210/0 (setting [2]) it was 120 ± 20 nM.
